From US6806230B1, “Pyrimidine derivatives and herbicides containing them” (Kumiai Chemical Industry Co., Ltd., priority 1999, dated 2004)

Legend:
Type in all cases: in vivo
wheat (Tr) = assay: Test Example 5: selectivity for a crop plant by soil treatment in upland field; set-up: scale not given here; conditions: dose 25 gai/10a, 21st day after treatment, index per Table 44
Description: (§1) In a 80 cm^2 plastic pot, upland soil was filled, and seeds of barnyard grass (Ec), green foxtail (Se), soybean (G1), wheat (Tr) and corn (Ze) were sown and covered with soil. A wettable powder prepared in accordance with Formulation Example 1 was diluted with water and uniformly applied to the soil surface by a small size spray at a rate of 100 l per 10 ares so that the dose of the active ingredient would be 25 g per 10 ares. Thereafter, cultivation was carried out in a green house, and on the 21st day after the treatment, the herbicidal effects were examined in accordance with the standards of Table 44.

soybean (G1) = assay: as above; set-up: scale not given here; conditions: dose 25 gai/10a, 21st day after treatment, index per Table 44
Description: as §1

barnyard grass (Ec) [1] = assay: as above; set-up: scale not given here; conditions: dose 25 gai/10a, 21st day after treatment, index per Table 44
Description: as §1

corn (Ze) = assay: as above; set-up: scale not given here; conditions: dose 25 gai/10a, 21st day after treatment, index per Table 44
Description: as §1

green foxtail (Se) = assay: Test Example 2: herbicidal effects by upland soil treatment; conditions: dose 100 g active ingredient per 10 ares, examined on the 21st day after treatment, standards of Table 44;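 also: 0-5 growth inhibition grade; 5 = over 90%; 4 = 70-90%; 3 = 50-70%; 2 = 30-50%; 1 = 10-30%; 0 = under 10%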
In short: (§2)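 Pre-emergence test: barnyard grass and green foxtail sown in upland soil, then soil surface sprayed with wettable-powder formulation at 100 g active ingredient per 10 ares (100 l per 10 ares). Grown in greenhouse; herbicidal effect scored on a rating scale 21 days after treatment.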

monochoria (Mo) [2] = assay: Test Example 4: selectivity for a crop plant by flooded paddy field treatment; set-up: scale not given here; conditions: for Mo (herbicidal effects, index): dose 25 g active ingredient per 10 ares, examined on the 21st day after treatment
In short: (§3)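 Water-surface application in a greenhouse pot test: 25 g active ingredient per 10 ares, given as a diluted wettable powder one day after flooding, with visual rating of herbicidal effect three weeks post-treatment.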

barnyard grass (Eo) [3] = assay: as above; set-up: scale not given here; conditions: for Eo (herbicidal effects, index): dose 25 g active ingredient per 10 ares, examined on the 21st day after treatment
In short: as §3

rice (Or) = assay: as above; set-up: scale not given here; conditions: rice transplanted at second leaf stage; for Or (effect on crop plant rice, index): dose 25 g active ingredient per 10 ares, examined on the 21st day after treatment
In short: as §3

barnyard grass (Ec) [4] = assay: Test Example 2: herbicidal effects by upland soil treatment; set-up: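 0-5 growth inhibition grade; 5 = over 90%; 4 = 70-90%; 3 = 50-70%; 2 = 30-50%; 1 = 10-30%; 0 = under 10%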; conditions: dose 100 g active ingredient per 10 ares, examined on the 21st day after treatment, standards of Table 44
In short: as §2

monochoria (Mo) [5] = assay: Test Example 1: herbicidal effects by flooded paddy field treatment; conditions: dose 100 gai/10a, examined on 21st day after treatment, index 0-5 per Table 44;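 also: 0-5 growth inhibition grade; 5 = over 90%; 4 = 70-90%; 3 = 50-70%; 2 = 30-50%; 1 = 10-30%; 0 = under 10%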
In short: (§4)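 Dose: 100 g active ingredient per 10 ares as a diluted wettable powder dripped onto 3 cm floodwater, one day after sowing in puddled paddy soil. Scored by a standard rating scale 21 days later following greenhouse growth.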

barnyard grass (Eo) [6] = assay: as above; conditions: dose 100 gai/10a, examined on 21st day after treatment, index 0-5 per Table 44
In short: as §4
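For Herbicidal effect index, Eo in this document: 0-5 growth inhibition grade; 5 = over 90%; 4 = 70-90%; 3 = 50-70%; 2 = 30-50%; 1 = 10-30%; 0 = under 10%.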

Or (effect on crop plant rice, index) (rice (Or)) | SMILES | Tr (herbicidal effect index on crop) (wheat (Tr)) | Gl (herbicidal effect index on crop) (soybean (G1)) | Ec (herbicidal effect index) (barnyard grass (Ec) [1]) | Ze (herbicidal effect index on crop) (corn (Ze)) | herbicidal effects, Se (green foxtail) (green foxtail (Se)) | Mo (herbicidal effects, index) (monochoria (Mo) [2]) | Eo (herbicidal effects, index) (barnyard grass (Eo) [3]) | herbicidal effects, Ec (barnyard grass) (barnyard grass (Ec) [4]) | Herbicidal effect index, Mo (monochoria (Mo) [5]) | Herbicidal effect index, Eo (barnyard grass (Eo) [6]) | Mo (herbicidal effect index) (monochoria (Mo) [2]; monochoria, dose 25 gai/10a, 21st day after treatment, index per Table 44) | Eo (herbicidal effect index) (barnyard grass (Eo) [3]; barnyard grass, dose 25 gai/10a, 21st day after treatment, index per Table 44) | Or (herbicidal effect index on crop) (rice (Or); dose 25 gai/10a, 21st day after treatment, index per Table 44)
0 | CC(C)Oc1ccc(CC(=O)N(C)C(c2cncnc2C(F)(F)F)C(C)C)cc1 (racemic) [Compound 1-97] | 1 | 3 | 4 | 0 | 5 | 5 | 5 | 5 | 5 | 5 |  |  | 
 | CC(C)C(c1cncnc1C(F)(F)F)N(C)C(=O)CCc1ccccc1 (racemic) [Compound 1-77] | 3 | 1 | 5 | 2 | 5 |  |  | 5 |  |  |  |  | 
1 | Cc1cccc(CC(=O)N(C)C(c2cncnc2C(F)(F)F)C(C)C)c1 (racemic) [Compound 1-51] | 1 | 0 | 5 | 0 | 5 | 5 | 5 | 5 | 5 | 5 |  |  | 
0 | CCCN(C(=O)Cc1ccc(Cl)cc1)C(c1cncnc1C(F)(F)F)C(C)C (racemic) [Compound 1-49] | 0 | 1 | 5 | 3 | 4 | 5 | 5 | 5 | 5 | 5 |  |  | 
 | CC(C)C(c1cncnc1C(F)(F)F)N(C(=O)Cc1ccccc1)C1CC1 (racemic) [Compound 1-80] | 5 | 0 | 5 | 1 | 5 |  |  | 5 | 5 | 5 |  |  | 
 | CC(C)c1ccc(CC(=O)N(C)C(c2cncnc2C(F)(F)F)C(C)C)cc1 (racemic) [Compound 1-68] | 2 | 0 | 4 | 2 | 5 |  |  | 5 | 5 | 5 |  |  | 
1 | CCC(c1cncnc1C(F)(F)F)N(C)C(=O)Cc1ccc(F)cc1 (racemic) [Compound 1-33] | 2 | 0 | 4 | 1 | 5 | 5 | 5 | 5 | 5 | 5 |  |  | 
 | CC(C)C(c1cncnc1C(F)(F)F)N(C)C(=O)COc1ccc(Cl)cc1 (racemic) [Compound 1-65] | 0 | 0 | 5 | 0 | 5 |  |  | 5 | 5 | 5 |  |  | 
 | CC(C)C(c1cncnc1C(F)(F)F)N(C)C(=O)Cc1cccc(Br)c1 (racemic) [Compound 1-70] | 4 | 1 | 5 | 1 | 5 |  |  | 5 | 5 | 5 |  |  | 
0 | CC#Cc1ccc(CC(=O)N(C)C(c2cncnc2C(F)(F)F)C(C)C)cc1 (racemic) [Compound 1-84] | 1 | 0 | 4 | 0 |  | 5 | 5 |  | 5 | 5 |  |  | 
 | CC(C)C(c1cncnc1C(F)(F)F)N(C)C(=O)Cc1ccc(C#N)cc1 (racemic) [Compound 1-75] | 3 | 0 | 4 | 2 | 5 |  |  | 5 | 5 | 5 |  |  | 
1 | Cc1ccc(CC(=O)N(C)C(c2cncnc2C(F)(F)F)C(C)C)cc1 (racemic) [Compound 1-23] | 2 |  | 5 | 1 | 5 | 5 | 5 | 5 | 5 | 5 |  |  | 
0 | CC(C)C(c1cncnc1C(F)(F)F)N(C)C(=O)C=Cc1ccccc1 (racemic) [Compound 1-85] | 1 | 0 | 4 | 0 | 5 | 5 | 5 | 5 | 5 | 5 |  |  | 
 | CCCN(C(=O)Cc1ccc(C#N)cc1)C(c1cncnc1C(F)(F)F)C(C)C (racemic) [Compound 1-99] | 3 | 0 | 4 | 0 | 5 |  |  | 5 | 5 | 5 | 5 | 5 | 1
 | CC(C)C(c1cncnc1C(F)(F)Cl)N(C)C(=O)Cc1ccccc1 (racemic) [Compound 1-15] | 1 |  | 5 | 1 | 5 |  |  | 5 | 5 | 5 |  |  | 
0 | COCc1ccc(CC(=O)N(C)C(c2cncnc2C(F)(F)F)C(C)C)cc1 (racemic) [Compound 1-76] | 2 | 0 | 4 | 2 | 5 | 5 | 5 | 5 | 5 | 5 |  |  | 
 | CC(C)C(c1cncnc1C(F)(F)F)N(C)C(=O)COc1ccccc1 (racemic) [Compound 1-64] | 3 | 2 | 4 | 0 | 5 |  |  | 5 | 5 | 5 |  |  | 
 | CC(C(=O)N(C)C(c1cncnc1C(F)(F)F)C(C)C)c1ccc(Cl)cc1 (mixture of isomers) [Compound 1-71] | 3 |  | 5 | 0 | 5 |  |  | 5 | 5 | 5 |  |  | 
